Data as given in patent US20250092016A1, “COMPOUNDS AND COMPOSITIONS FOR THE TREATMENT OF CORONAVIRAL RELATED DISEASES” (priority 2021, published 2025).

Molecular target: SARS-CoV-2 main protease (M^pro) (Severe acute respiratory syndrome coronavirus 2, UniProt P0DTD1)
Assay: Rapid-Fire MS Biochemical Assay measuring Mpro activity (5 nM Mpro)
Conditions: Table 1B, Mpro inhibition, 5 μM substrate peptide, 120 min, read-out: Rapid-Fire Assay IC50

Row | SMILES | IC50
1 | N#CC1CN(c2cc(C(F)(F)F)ncc2Cl)C(=O)N1c1cncc2ccccc12 (racemic) [Compound 70-1, 1-(5-chloro-2-(trifluoromethyl)pyridin-4-yl)-3-(isoquinolin-4-yl)-2-oxoimidazolidine-4-carbonitrile] | 20 to 200 nM
2 | N#CC1CN(c2ccc(F)c(F)c2)C(=O)N1c1cncc2ccccc12 (racemic) [Compound 72, 1-(3,4-difluorophenyl)-3-(isoquinolin-4-yl)-2-oxoimidazolidine-4-carbonitrile] | < 20 nM
3 | Cc1ncccc1N1CC(C#N)N(c2cncc3ccccc23)C1=O (racemic) [Compound 74, 3-(isoquinolin-4-yl)-1-(2-methylpyridin-3-yl)-2-oxoimidazolidine-4-carbonitrile] | 200 to 1000 nM
4 | Cc1cc(Cl)cnc1N1CC(C#N)N(c2cncc3ccccc23)C1=O (racemic) [Compound 80, 1-(5-chloro-3-methylpyridin-2-yl)-3-(isoquinolin-4-yl)-2-oxoimidazolidine-4-carbonitrile] | 20 to 200 nM
5 | N#CC1CN(c2ccc(F)c(Cl)c2)C(=O)N1c1cncc2ccccc12 (racemic) [Compound 87, 1-(3-chloro-4-fluorophenyl)-3-(isoquinolin-4-yl)-2-oxoimidazolidine-4-carbonitrile] | < 20 nM
6 | N#CC1CN(c2cccc(OC(F)F)c2)C(=O)N1c1cncc2ccccc12 (racemic) [Compound 89, 1-(3-(difluoromethoxy)phenyl)-3-(isoquinolin-4-yl)-2-oxoimidazolidine-4-carbonitrile] | 200 to 1000 nM
7 | N#Cc1ccc(C(F)(F)F)cc1N1CC(C#N)N(c2cncc3ccccc23)C1=O (racemic) [Compound 90, 1-(2-cyano-5-(trifluoromethyl)phenyl)-3-(isoquinolin-4-yl)-2-oxoimidazolidine-4-carbonitrile] | < 20 nM
8 | N#CC1CN(c2cccc(OC(F)(F)F)c2)C(=O)N1c1cncc2ccccc12 (racemic) [Compound 92, 3-(isoquinolin-4-yl)-2-oxo-1-(3-(trifluoromethoxy)phenyl)imidazolidine-4-carbonitrile] | < 20 nM
9 | COc1cc(Cl)ccc1N1CC(C#N)N(c2cncc3ccccc23)C1=O (racemic) [Compound 103, 1-(4-chloro-2-methoxyphenyl)-3-(isoquinolin-4-yl)-2-oxoimidazolidine-4-carbonitrile] | 20 to 200 nM
10 | N#CC1CN(c2cccc(C(F)(F)F)c2)C(=O)N1c1cncc2ccccc12 (racemic) [Compound 106, 3-(isoquinolin-4-yl)-2-oxo-1-(3-(trifluoromethyl)phenyl)imidazolidine-4-carbonitrile] | > 1000 nM
11 | N#CC1CN(c2cc(F)cc(F)c2)C(=O)N1c1cncc2ccccc12 (racemic) [Compound 110, 1-(3,5-difluorophenyl)-3-(isoquinolin-4-yl)-2-oxoimidazolidine-4-carbonitrile] | < 20 nM
12 | N#CC1CN(c2ccc(=O)[nH]c2)C(=O)N1c1cncc2ccccc12 (racemic) [Compound 113, 3-(isoquinolin-4-yl)-2-oxo-1-(6-oxo-1,6-dihydropyridin-3-yl)imidazolidine-4-carbonitrile] | > 1000 nM
13 | Cc1ccc(C#N)c(N2CC(C#N)N(c3cncc4ccccc34)C2=O)c1 (racemic) [Compound 116, 1-(2-cyano-5-methylphenyl)-3-(isoquinolin-4-yl)-2-oxoimidazolidine-4-carbonitrile] | < 20 nM
14 | Cc1c[nH]c(N2CC(C#N)N(c3cncc4ccccc34)C2=O)n1 (racemic) [Compound 118, 3-(isoquinolin-4-yl)-1-(4-methyl-1 H-imidazol-2-yl)-2-oxoimidazolidine-4-carbonitrile] | 200 to 1000 nM
15 | N#CC1CN(c2nc(Cl)c[nH]2)C(=O)N1c1cncc2ccccc12 (racemic) [Compound 119, 1-(4-chloro-1H-imidazol-2-yl)-3-(isoquinolin-4-yl)-2-oxoimidazolidine-4-carbonitrile] | 20 to 200 nM
16 | N#CC1CN(C2CC3(C2)CC(F)(F)C3)C(=O)N1c1cncc2ccccc12 (racemic) [Compound 127, 1-(6,6-difluorospiro[3.3]heptan-2-yl)-3-(isoquinolin-4-yl)-2-oxoimidazolidine-4-carbonitrile] | < 20 nM
17 | N#CC1CN(C2CN(CC(F)(F)F)C2)C(=O)N1c1cncc2ccccc12 (racemic) [Compound 133, 3-(isoquinolin-4-yl)-2-oxo-1-(1-(2,2,2-trifluoroethyl)azetidin-3-yl)imidazolidine-4-carbonitrile] | < 20 nM
18 | N#CC1CN(C2CN(C3CC3)C2)C(=O)N1c1cncc2ccccc12 (racemic) [Compound 135, 1-(1-cyclopropylazetidin-3-yl)-3-(isoquinolin-4-yl)-2-oxoimidazolidine-4-carbonitrile] | 20 to 200 nM
19 | N#CC1CN(C23CC(F)(C2)C3)C(=O)N1c1cncc2ccccc12 (racemic) [Compound 139, 1-(3-fluorobicyclo[1.1.1]pentan-1-yl)-3-(isoquinolin-4-yl)-2-oxoimidazolidine-4-carbonitrile] | 20 to 200 nM
20 | COc1cc(C(F)(F)F)ccc1N1C[C@H](C#N)N(c2cncc3ccccc23)C1=O (single isomer, unassigned) [Compound 12a] | < 20 nM
21 | COc1cc(C(F)(F)F)ccc1N1C[C@@H](C#N)N(c2cncc3ccccc23)C1=O (single isomer, unassigned) [Compound 12b] | > 1000 nM
22 | N#C[C@H]1CN(c2cnnc(C(F)(F)F)c2)C(=O)N1c1cncc2ccccc12 (single isomer, unassigned) [Compound 13a] | < 20 nM
23 | N#C[C@@H]1CN(c2cnnc(C(F)(F)F)c2)C(=O)N1c1cncc2ccccc12 (single isomer, unassigned) [Compound 13b] | > 1000 nM
24 | COc1cnc(C(F)(F)F)cc1N1C[C@H](C#N)N(c2cncc3ccccc23)C1=O (single isomer, unassigned) [Compound 14a] | < 20 nM
25 | COc1cnc(C(F)(F)F)cc1N1C[C@@H](C#N)N(c2cncc3ccccc23)C1=O (single isomer, unassigned) [Compound 14b] | > 1000 nM

Row | SMILES | IC50
26 | COc1ccc(C#N)cc1N1C[C@H](C#N)N(c2cncc3ccccc23)C1=O (single isomer, unassigned) [Compound 15a] | < 20 nM
27 | COc1ccc(C#N)cc1N1C[C@@H](C#N)N(c2cncc3ccccc23)C1=O (single isomer, unassigned) [Compound 15b] | > 1000 nM
28 | N#C[C@H]1CN(c2ncc(Cl)cn2)C(=O)N1c1cncc2ccccc12 (single isomer, unassigned) [Compound 16a] | < 20 nM
29 | N#C[C@@H]1CN(c2ncc(Cl)cn2)C(=O)N1c1cncc2ccccc12 (single isomer, unassigned) [Compound 16b] | 200 to 1000 nM
30 | COc1ccc(C(F)(F)F)cc1N1C[C@H](C#N)N(c2cncc3ccccc23)C1=O (single isomer, unassigned) [Compound 17a] | < 20 nM
31 | COc1ccc(C(F)(F)F)cc1N1C[C@@H](C#N)N(c2cncc3ccccc23)C1=O (single isomer, unassigned) [Compound 17b] | > 1000 nM
32 | N#Cc1cc(C(F)(F)F)ncc1N1C[C@H](C#N)N(c2cncc3ccccc23)C1=O (single isomer, unassigned) [Compound 18a] | < 20 nM
33 | N#Cc1cc(C(F)(F)F)ncc1N1C[C@@H](C#N)N(c2cncc3ccccc23)C1=O (single isomer, unassigned) [Compound 18b] | > 1000 nM
34 | COc1cc(C#N)ccc1N1C[C@H](C#N)N(c2cncc3ccccc23)C1=O (single isomer, unassigned) [Compound 19a] | < 20 nM
35 | COc1cc(C#N)ccc1N1C[C@@H](C#N)N(c2cncc3ccccc23)C1=O (single isomer, unassigned) [Compound 19b] | > 1000 nM
36 | N#Cc1ccc(Cl)cc1N1C[C@H](C#N)N(c2cncc3ccccc23)C1=O (single isomer, unassigned) [Compound 20a] | < 20 nM
37 | N#Cc1ccc(Cl)cc1N1C[C@@H](C#N)N(c2cncc3ccccc23)C1=O (single isomer, unassigned) [Compound 20b] | > 1000 nM
38 | Cc1ccc(F)cc1N1C[C@H](C#N)N(c2cncc3ccccc23)C1=O (single isomer, unassigned) [Compound 21a] | < 20 nM
39 | Cc1ccc(F)cc1N1C[C@@H](C#N)N(c2cncc3ccccc23)C1=O (single isomer, unassigned) [Compound 21b] | > 1000 nM
40 | N#C[C@H]1CN(c2cccc(C(F)F)c2)C(=O)N1c1cncc2ccccc12 (single isomer, unassigned) [Compound 22a] | < 20 nM
41 | N#C[C@@H]1CN(c2cccc(C(F)F)c2)C(=O)N1c1cncc2ccccc12 (single isomer, unassigned) [Compound 22b] | > 1000 nM
42 | COc1cc(N2C[C@H](C#N)N(c3cncc4ccccc34)C2=O)ccn1 (single isomer, unassigned) [Compound 23a] | < 20 nM
43 | COc1cc(N2C[C@@H](C#N)N(c3cncc4ccccc34)C2=O)ccn1 (single isomer, unassigned) [Compound 23b] | > 1000 nM
44 | Cc1ccc(C(F)(F)F)cc1N1C[C@H](C#N)N(c2cncc3ccccc23)C1=O (single isomer, unassigned) [Compound 24a] | < 20 nM
45 | Cc1ccc(C(F)(F)F)cc1N1C[C@@H](C#N)N(c2cncc3ccccc23)C1=O (single isomer, unassigned) [Compound 24b] | > 1000 nM
46 | N#C[C@H]1CN([C@@H]2CCN(C(=O)CO)C2)C(=O)N1c1cncc2ccccc12 (single isomer, unassigned) [Compound 25a] | 200 to 1000 nM
47 | N#C[C@@H]1CN([C@@H]2CCN(C(=O)CO)C2)C(=O)N1c1cncc2ccccc12 (single isomer, unassigned) [Compound 25b] | > 1000 nM
48 | N#C[C@H]1CN([C@@H]2CCN(CCC(F)(F)F)C2)C(=O)N1c1cncc2ccccc12 (single isomer, unassigned) [Compound 26a] | 200 to 1000 nM
49 | N#C[C@@H]1CN([C@@H]2CCN(CCC(F)(F)F)C2)C(=O)N1c1cncc2ccccc12 (single isomer, unassigned) [Compound 26b] | > 1000 nM
50 | N#C[C@H]1CN(c2cc(C(F)(F)F)cnn2)C(=O)N1c1cncc2ccccc12 (single isomer, unassigned) [Compound 30a] | < 20 nM
